Results published in patent US20160235724A1, “TETRAHYDROPYRIDOETHERS FOR THE TREATMENT OF STARGARDT'S DISEASE” (KATAIRO GMBH, priority 2013, published 2016).
Values joined by “and” are separate entries in the source; they are usually repeats but may differ in a detail not shown here. Identical values can stand only once.

How the values were obtained:
[1] = tested on: lipofuscin in RPE cells of ABCA4−/− mice; assay: Quantification and ultrastructural (TEM) analysis of lipofuscin in RPE after single intravitreal injection in ABCA4−/− mice (Stargardt's disease model); format: in vivo, mouse; conditions: single intravitreal injection 0.32 mg
Experimental: Pigmented ABCA4^−/− mice (129S4/SvJae-ABCA4^tm1Ght) were provided by Gabriel Travis (David Geffen School of Medicine, University of California, Los Angeles, Calif.) and bred in the Biomedical Sciences division, University of Oxford. All experiments were conducted in female mice. The animals were kept in a 12 hour light (<100 lux)/dark cycle, with food and water available ad libitum. All animal breeding and experimental procedures were performed under approval of local and national ethical and legal authorities, and were conducted in compliance with the ARVO statement for the Use of Animals in Ophthalmic and Vision Research.
(§1) Two μl PBS containing a total amount of 0.32 mg Soraprazan in suspension were injected into the vitreous of three 12 months old ABCA4^−/− mice.
(§2) The eyes were enucleated after four weeks. Two untreated aged matched ABCA4^−/− mice served as controls. After enucleation, the eyes were cleaned of orbital tissue and, after removal of the cornea, were fixed overnight at 4° C. in 2% glutaraldehyde in 0.1 M cacodylate buffer (pH 7.4) containing 100 mM sucrose. After washing with cacodylate buffer, areas of interest in flat mount preparations were excised and post-fixed with 1% osmium tetroxide in 0.1 M cacodylate buffer at room temperature for 1 h. In some parts of the eyes osmication was omitted which preserved the autofluorescence of lipofuscin. Dehydration was then started by a series of incubations in 30, 50, and 70% ethanol. The samples were stained with saturated uranyl acetate. Dehydration was continued by incubations in 70, 80, 95, 100% ethanol and propylene oxide. The samples were then embedded in Epon (SPI-Pon™812 Epoxy Embedding Kit, SPI supplies, West Chester, Pa.). For light and fluorescence microscopy, staining with osmium and uranylacetate was omitted.
Ultrathin Epon sections (70 nm) from WT control eyes and ABCA4^−/− eyes were post-stained with lead citrate and investigated under a transmission electron microscope (TEM; Model 902 A, Carl Zeiss, Oberkochen, Germany). For statistical analysis, the areas occupied by lipofuscin granules were quantified in 8-10 micrographs from each group. […] For lipofuscin quantification, image analysis software (iTEM, Olympus Soft imaging Solutions, Munster, Germany) was used. For each image, the total area of RPE cytoplasm was determined. […] The area fraction of lipofuscin/melanolipofuscin is expressed as area in μm^2 occupied by lipofuscin per 100 μm^2 RPE cytoplasm.
Statistical significance for the ultrastructural evaluation of lipofuscin granules was determined by using Dunnett's test and the JMP9 statistical program (SAS; Heidelberg, Germany). […]

[2] = tested on: lipofuscin in RPE cells of ABCA4−/− mice; assay: Fluorescence microscopy of autofluorescent lipofuscin granules in RPE semithin sections of ABCA4−/− mice; format: in vivo, mouse; conditions: 12-month-old ABCA4−/− mice, 4 weeks after single intravitreal injection of 0.32 mg, qualitative
Experimental: as §1
as §2, with “The samples were stained with saturated uranyl acetate. Dehydration was continued by incubations in 70, 80, 95, 100% ethanol and propylene oxide. The samples were then embedded in Epon (SPI-Pon™812 Epoxy Embedding Kit, SPI supplies, West Chester, Pa.).” left out
Autofluorescent lipofuscin and melanolipofuscin granules were photographed in semi thin sections using a fluorescence microscope (Zeiss Axioplan2 imaging, excitation 370/36 nm, emission 575/15 nm, 40× objective) connected to a personal computer equipped with a CDD camera. Since the granules could not clearly be separated from each other and lipofuscin cannot be differentiated from melanolipofuscin, the quantification of lipofuscin granules was performed using electron microscopy.

[3] = tested on: Cynomolgus monkey; assay: 52-week oral administration in the Cynomolgus monkey, conventional histopathology of the eye; format: in vivo
Experimental: Soraprazan was administrated in oral application of 6, 12 and 24 mg/kg/day for 52 weeks in the Cynomolgus monkey.
Some monkeys from the control and the high-dose group were subjected to a recovery period of 3 months.

[4] = tested on: RPE cells; conditions: known from the literature; cited from earlier work

CO[C@@H]1[C@@H](c2ccccc2)Nc2c(ccn3c(C)c(C)nc23)[C@H]1OC [Example 8, (7R,8R,9R)-2,3-Dimethyl-7,8-dimethoxy-9-phenyl-7,8,9,10-tetrahydro-imidazo[1,2-h][1,7]naphthyridine]
melting point: 155 to 156 °C

COCCO[C@@H]1c2ccn3c(C)c(C)nc3c2N[C@H](c2ccccc2)[C@H]1O [Soraprazan, (7R,8R,9R)-2,3-Dimethyl-8-hydroxy-7-(2-methoxyethoxy)-9-phenyl-7,8,9,10-tetrahydro-imidazo [1,2-h][1,7]naphthyridine]
percent area occupied by lipofuscin in RPE cell cytoplasm (median) ([1]; 12-month-old ABCA4−/− mice, eyes enucleated after four weeks, untreated median 12.92%, p<0.0001, Dunnett's test): 6.42% | electron-opaque lipofuscin granules in RPE (TEM) compared to controls ([1]; 12-month-old ABCA4−/− mice, four weeks): significantly reduced in number | appearance of retinas of treated animals ([1]; ABCA4−/− mice): removing lipofuscin. Retinas of treated animals made a healthy | lipofuscin content of RPE cells after treatment (study overview result) ([1]; ABCA4−/− mice, 44 retinal areas, p < 0.0001): significantly reduced and 1. Lipofuscin is removed from ABCA4^−/− mouse RPE cells after | lipofuscin in RPE under fluorescent light compared to untreated mice [2]: lipofuscin was reduced | conventional histopathology findings ([3]; oral 6 mg/kg/day for 52 weeks): no alterations | conventional histopathology findings ([3]; oral 12 mg/kg/day for 52 weeks): no alterations | monkeys showing migration of individual macrophages beneath the RPE and/or into the subretinal space ([3]; oral 24 mg/kg/day for 52 weeks): Three out of 12 | photoreceptors facing the depigmented RPE ([3]; oral 24 mg/kg/day for 52 weeks): stayed healthy | monkeys with depigmentation of RPE cells ([3]; oral 24 mg/kg/day for 52 weeks, among the 3 monkeys with macrophage migration): Two of these 3 | removal of "natural" lipofuscin from RPE cells [4]: remove such lipofuscin from RPE cells

Cc1nc2c3c(ccn2c1C)[C@H](OC(C)C)[C@H](O)[C@@H](c1ccccc1)N3 [Example 7, (7S,8R,9R)-2,3-Dimethyl-8-hydroxy-9-phenyl-7-(2-propoxy)-7,8,9,10-tetrahydro-imidazo [1,2-h][1,7]naphthyridine]
melting point: 168 to 169 °C

CCO[C@H]1c2ccn3c(C)c(C)nc3c2N[C@H](c2ccccc2)[C@H]1O [Example 4, (7S,8R,9R)-2,3-Dimethyl-7-ethoxy-8-hydroxy-9-phenyl-7,8,9,10-tetrahydro-imidazo [1,2-h][1,7]naphthyridine]
melting point: 135 to 137 °C

CO[C@@H]1c2ccn3c(C)c(C)nc3c2N[C@@H](c2ccccc2)[C@@H]1O [Example 2B, (7R,8S,9S)-2,3-Dimethyl-8-hydroxy-7-methoxy-9-phenyl-7,8,9,10-tetrahydro-imidazo[1,2-h][1,7]naphthyridine]
melting point: 171 to 172 °C

CO[C@H]1c2ccn3c(C)c(C)nc3c2N[C@H](c2ccccc2)[C@H]1O [Example 2A, (7S,8R,9R)-2,3-Dimethyl-8-hydroxy-7-methoxy-9-phenyl-7,8,9,10-tetrahydro-imidazo [1,2-h][1,7]naphthyridine]
melting point: 108 to 110 °C

CCO[C@@H]1c2ccn3c(C)c(C)nc3c2N[C@H](c2ccccc2)[C@H]1O [Example 3, (7R,8R,9R)-2,3-Dimethyl-7-ethoxy-8-hydroxy-9-phenyl-7,8,9,10-tetrahydro-imidazo [1,2-h][1,7]naphthyridine]
melting point: 188 to 190 °C

CO[C@H]1c2ccn3c(C)c(C)nc3c2N[C@@H](c2ccccc2)[C@@H]1O [Example 1B, (7S,8S,9S)-2,3-Dimethyl-8-hydroxy-7-methoxy-9-phenyl-7,8,9,10-tetrahydro-imidazo [1,2-h][1,7] naphthyridine]
melting point: 161 to 162 °C
